Data set [1] relates to Escherichia coli (RCMB 010052). Kind of data set: Inhibition zone, agar cup diffusion. The settings on record: RCMB010052, 24 h, read-out: inhibition zones (IZ) E.coli.
The subject of data set [2] is Salmonella typhi (RCMB 0100104). The data set is described as follows: Inhibition zone, agar cup diffusion. The settings on record: Salmonella enterica, 24 h, read-out: inhibition zones (IZ) S. typhi. It is filed as cell-based.
Data set [3] deals with Staphylococcus aureus (RCMB 0100183). The data set is described as follows: Inhibition zone, agar cup diffusion. The settings on record: RCMB0100183, 24 h, read-out: inhibition zones (IZ) S. aureus.
Data set [4] relates to carrageenan-induced paw edoema. The data set is described as follows: Carrageenan-induced paw edoema in mice. The settings on record: for ED50: Mus musculus, 8 h, read-out: ED50 (95% confidence level); for Thickness of edoema 0h / percentage anti-inflammatory activity (AI%) 2h / Thickness of edoema 2h / percentage anti-inflammatory activity (AI%) 4h / Thickness of edoema 4h / percentage anti-inflammatory activity (AI%) 6h / Thickness of edoema 6h / Thickness of edoema 8h: mice, po 10 µmol/kg b.wt.; for Thickness of edoema 0h: 0 h (before carrageenan); for Thickness of edoema 0h / Thickness of edoema 2h / Thickness of edoema 4h / Thickness of edoema 6h / Thickness of edoema 8h: Mean ± SEM, n = 5; for Thickness of edoema 2h: 2 h after carrageenan; for Thickness of edoema 4h: 4 h after carrageenan; for Thickness of edoema 6h: 6 h after carrageenan; for Thickness of edoema 8h: 8 h after carrageenan.

For a further data set, the target named is T1, human recombinant COX-2 (Homo sapiens, UniProt P35354).
T1 sequence (P35354 18-604): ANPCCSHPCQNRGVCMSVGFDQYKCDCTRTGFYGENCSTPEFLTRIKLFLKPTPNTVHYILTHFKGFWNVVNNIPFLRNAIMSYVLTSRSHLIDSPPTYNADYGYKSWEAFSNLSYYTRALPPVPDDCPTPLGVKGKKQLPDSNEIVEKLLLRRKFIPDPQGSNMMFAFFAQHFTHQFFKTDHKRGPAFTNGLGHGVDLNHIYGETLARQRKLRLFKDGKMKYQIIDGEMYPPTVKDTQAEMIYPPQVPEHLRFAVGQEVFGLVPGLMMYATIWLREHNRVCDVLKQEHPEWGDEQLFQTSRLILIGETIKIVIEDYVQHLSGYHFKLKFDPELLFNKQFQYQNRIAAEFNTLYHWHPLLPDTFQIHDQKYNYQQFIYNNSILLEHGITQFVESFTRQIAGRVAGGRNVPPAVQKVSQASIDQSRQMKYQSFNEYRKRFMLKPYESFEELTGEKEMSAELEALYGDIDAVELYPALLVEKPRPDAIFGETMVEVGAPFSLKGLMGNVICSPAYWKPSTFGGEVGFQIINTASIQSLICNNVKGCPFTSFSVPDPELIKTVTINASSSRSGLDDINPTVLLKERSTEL
The data set is described as follows: In vitro COX-2 enzymatic assay (Cayman kit 560131). The settings on record: for SI COX-1/COX-2: COX-2 selectivity index: COX-1 IC50/COX-2 IC50.

Data set [5] deals with Bacillus subtilis (RCMB 0100162). The data set is described as follows: Inhibition zone, agar cup diffusion. The settings on record: RCMB0100162, 24 h, read-out: inhibition zones (IZ) B. subtillis.
Data set [6] deals with Shigella dysenteriae (RCMB 0100542). The data set is described as follows: Inhibition zone, agar cup diffusion. It is filed as cell-based. The settings on record: RCMB0100542, 24 h, read-out: inhibition zones (IZ) S. dysenteriae.
For a further data set, the target named is T2, ovine COX-1 (Ovis aries, UniProt P05979).
T2 construct: purchased Cayman Chemicals Inc. 560131
T2 sequence (P05979 25-600): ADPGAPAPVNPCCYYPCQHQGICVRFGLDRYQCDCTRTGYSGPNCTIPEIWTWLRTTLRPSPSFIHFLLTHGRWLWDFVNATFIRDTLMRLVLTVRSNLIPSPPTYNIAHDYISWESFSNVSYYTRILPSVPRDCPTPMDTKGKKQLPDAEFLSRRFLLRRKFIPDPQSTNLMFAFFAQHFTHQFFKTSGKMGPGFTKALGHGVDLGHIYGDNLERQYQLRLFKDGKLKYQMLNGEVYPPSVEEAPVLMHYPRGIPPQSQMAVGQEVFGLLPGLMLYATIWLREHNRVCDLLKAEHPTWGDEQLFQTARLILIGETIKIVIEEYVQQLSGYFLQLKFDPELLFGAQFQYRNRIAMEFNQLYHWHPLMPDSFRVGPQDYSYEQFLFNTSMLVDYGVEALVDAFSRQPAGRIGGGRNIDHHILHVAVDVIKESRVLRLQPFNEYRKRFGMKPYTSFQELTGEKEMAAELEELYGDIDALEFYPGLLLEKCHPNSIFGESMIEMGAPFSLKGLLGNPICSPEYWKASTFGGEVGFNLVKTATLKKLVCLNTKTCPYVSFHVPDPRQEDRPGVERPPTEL
The data set is described as follows: In vitro COX-1 enzymatic assay (Cayman kit 560131). It is filed as biochemical. The settings on record: Mean ± SEM of triplicate determinations.

Data set [7] concerns Staphylococcus epidermidis (RCMB 0100183). The data set is described as follows: Inhibition zone, agar cup diffusion. The settings on record: RCMB0100183, 24 h, read-out: inhibition zones (IZ) S. epidermidis.
For a further data set, the system named is PGE2. The data set is described as follows: Estimation of rat plasma PGE2. The settings on record: po 10 µmol/kg b.wt., 8 h after carrageenan; for % inhibition of PGE2-production: rat serum; for PGE2 serum conc.: rat, Mean ± SEM, n = 5.
Data set [8] has as its system Gram-positive and Gram-negative bacteria. The data set is described as follows: In vitro antibacterial screening, whole panel. It is filed as cell-based. The settings on record: whole bacterial panel, result in words.
In data set [9] the test system is Pseudomonas aeruginosa (RCMB 0100243). The data set is described as follows: Inhibition zone, agar cup diffusion. The settings on record: RCMB0100243, 24 h, read-out: inhibition zones (IZ) P.aeruginosa.
For another data set, the system named is gastric layers. Kind of data set: Gastric ulcerogenic activity. The settings on record: fasted male Wistar rats, oral 30 µmol/kg twice at 4 h interval.
The subject of data set [10] is Proteus vulgaris (RCMB 010085). The data set is described as follows: Inhibition zone, agar cup diffusion. The settings on record: RCMB010085, 24 h, read-out: inhibition zones (IZ) P. vulgaris.
The test system of data set [11] is Streptococcus mutans (RCMB 0100172). The data set is described as follows: Inhibition zone, agar cup diffusion. The settings on record: RCMB0100172, 24 h, read-out: inhibition zones (IZ) S. mutans.

Marks after values point to notes of the source that are not given here.

`CCCCNC(=O)c1cc(/N=N/c2ccc(S(=O)(=O)Nc3nccs3)cc2)ccc1O` [Compound 5b, N-Butyl-2-hydroxy-5-((4-(N-(thiazol-2-yl)sulfamoyl)phenyl)diazenyl) benzamide]: the median effective dose (ED50) amounted to 416 µmol/kg in the data set with E. coli C11 (Escherichia coli, C11, in Mus musculus, read-out: ED50 against E.coli infection); 18.7 µmol/kg in data set [4]; 413 µmol/kg in the data set with S. aureus Smith (Staphylococcus aureus, in Mus musculus, read-out: ED50 against S. aureus infection). In addition, the “ED50, protective effect against bacteremic infection, Escherichia coli” value in the data set on E. coli C11 (mice, challenge dose 7.1x10^3 CFU/mouse ip, intragastric once a day for 7 days, survival) is 415.7 µmol/kg/day. Moreover, the zone of inhibition at 1000 µg/mL was 14 mm in data set [1]; 14 mm in data set [2]; 29 mm in data set [3]; 20 mm in data set [5]; 22 mm in [6]; 34 mm in data set [7]. In addition, the zone of inhibition at 1000 µg/mL in data set [9] came out at 16 mm; in data set [10], 19 mm; in data set [11] it was 27 mm. Moreover, the “Thickness of edoema 0h” value in [4] worked out at 0.68 ± 0.01 mm. In addition, the “percentage anti-inflammatory activity (AI%) 2h” value in data set [4] is given as “(0%)”. Moreover, the “Thickness of edoema 2h” value in data set [4] is 0.95 ± 0.04 mm. The “percentage anti-inflammatory activity (AI%) 4h” value in data set [4] was “(20.83%)”. For the same compound, in [4], the “Thickness of edoema 4h” value came to 1.19 ± 0.01 mm. The “percentage anti-inflammatory activity (AI%) 6h” value in [4] is reported as “(45.85%)”. Further, the “Thickness of edoema 6h” value in data set [4] was determined as 1.11 ± 0.01 mm. Besides, the “Thickness of edoema 8h” value in [4] is reported as 1.01 ± 0.02 mm. Further, the IC50 on human recombinant COX-2 is 0.07 ± 0.0005 µM; against ovine COX-1, 12.2 ± 0.06 µM. In addition, at human recombinant COX-2, the “SI COX-1/COX-2” value turned out to be 187.7. In addition, the “ED50, protective effect against bacteremic infection, Staphylococcus aureus” value in the data set with S. aureus Smith (mice, challenge dose 9.5x10^6 CFU/mouse ip, intragastric once a day for 7 days, survival) is 413.1 µmol/kg/day. Moreover, the “% inhibition of PGE2-production” value in the data set with PGE2 was 65.70%. Further, the PGE2 serum conc. in the data set on PGE2 was 452.954 ± 6.48 pg/mL. In [8], the “in vitro antibacterial activity” value is reported as “weak in vitro antibacterial activity”. Also, the “Gastric ulcerogenic effect, histopathological examination of gastric layers” value in the data set on gastric layers was “gastrointestinal safety profile”.
Regarding `Cc1ccnc(NS(=O)(=O)c2ccc(/N=N/c3ccc(O)c(C(=O)N4CCCCC4)c3)cc2)n1` [Compound 5k, 4-((4-Hydroxy-3-(piperidine-1-carbonyl)phenyl)diazenyl)-N-(4-methylpyrimidin-2-yl) benzenesulfonamide], the zone of inhibition at 1000 µg/mL in [1] was found to be 16 mm; in data set [2], 14 mm; in [3], 19 mm; in data set [5], 18 mm; in data set [6], 25 mm; in data set [7] it was 32 mm. Further, the zone of inhibition at 1000 µg/mL in data set [9] came out at 14 mm; in data set [10] it was 19 mm; in data set [11] it was 28 mm. Also, the half-maximal inhibitory concentration (IC50) at human recombinant COX-2 was 0.09 ± 0.0003 µM; against ovine COX-1 it was 10.3 ± 0.08 µM. Further, the “SI COX-1/COX-2” value on human recombinant COX-2 is on record as 111.9. In [8], the “in vitro antibacterial activity” value was “weak in vitro antibacterial activity”.
`O=C(c1cc(N=Nc2ccc(S(=O)(=O)Nc3nccs3)cc2)ccc1O)N1CCOCC1` [Compound 5m, 4-((4-Hydroxy-3-(morpholine-4-carbonyl)phenyl)diazenyl)-N-(thiazol-2-yl)benzenesulfonamide]: the zone of inhibition at 1000 µg/mL worked out at 18 mm in [1]; 16 mm in [2]; 25 mm in [3]; 20 mm in data set [5]; 24 mm in data set [6]; 33 mm in data set [7]. Further, the zone of inhibition at 1000 µg/mL was determined as 18 mm in [9], 16 mm in data set [10] and 29 mm in data set [11]. The 50% inhibitory concentration (IC50) on human recombinant COX-2 is 0.1 ± 0.0008 µM; against ovine COX-1, 9.9 µM. In addition, the “SI COX-1/COX-2” value at human recombinant COX-2 worked out at 102.1. Also, the “in vitro antibacterial activity” value in [8] is “weak in vitro antibacterial activity”.
Regarding `O=C(O)Cc1ccccc1Nc1c(Cl)cccc1Cl` [Diclofenac sodium, reference compound], in data set [4], the 50% effective dose (ED50) was found to be 11.5 µmol/kg, the “Thickness of edoema 0h” value was 0.69 ± 0.004 mm, the “percentage anti-inflammatory activity (AI%) 2h” value was “(-11.58%)” and the “Thickness of edoema 2h” value is reported as 1.06 ± 0.03^c mm. In [4], the “percentage anti-inflammatory activity (AI%) 4h” value is listed as “(38.19%)”, the “Thickness of edoema 4h” value is given as 0.89 ± 0.01^c mm, the “percentage anti-inflammatory activity (AI%) 6h” value is “(60.98%)” and the “Thickness of edoema 6h” value is 0.80 ± 0.01^c mm. In data set [4], the “Thickness of edoema 8h” value is on record as 0.71 ± 0.01^c mm. Besides, in the data set on PGE2, the “% inhibition of PGE2-production” value was 79.10% and the PGE2 serum conc. was 276.052 ± 5.60 pg/mL. In addition, in the data set on gastric layers, the “Gastric ulcerogenic effect, histopathological examination of gastric layers” value is given as “erosion in the gastric layers”; the “Gastric ulcerogenic effect, monitoring of isolated stomachs” value was “signs of gastric ulcers and hyperaemia”.

Values taken from PMC9225712, “Rational design of biodegradable sulphonamide candidates treating septicaemia by synergistic dual inhibition of COX-2/PGE2 axis and DHPS enzyme” (Journal of Enzyme Inhibition and Medicinal Chemistry, 2022).
